Source: ChEMBL document CHEMBL1201862, “PubChem BioAssay data set” (2004)
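Following 48 hours of exposure in 96-well plates, responses at five concentrations were used to interpolate endpoints linearly. GI50 is the concentration that inhibits growth by half.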 Calls of active or inactive are those of the source. Cut-off read from the data, not from the text of the source: active = GI50 up to about 1.1 µM and inactive = higher. Square brackets hold non-standard residues; d marks the D form. Peptide text beside a SMILES is read from it. * marks the point of attachment. Bn2Val = CC(C)[C@@H](C(=O)*)N(Cc1ccccc1)Cc1ccccc1; NH(3,4-diMeO-benzyl) = COc1ccc(CN*)cc1OC; NMeV = CN[C@H](C(=O)O)C(C)C; dNMeA = CN[C@H](C)C(=O)O

Assays:
Assay in all cases: inhibition of tumour cell growth, NCI panel, 48 h
[1] = system: NCI-H226
[2] = system: HOP-62
[3] = system: DU-145
[4] = system: BT-549
[5] = system: COLO 205
[6] = system: M14
[7] = system: HCC 2998
[8] = system: MCF7
[9] = system: RXF 393
[10] = system: MDA-MB-435
[11] = system: HL-60
[12] = system: MDA-MB-231
[13] = system: SF-539
[14] = system: SN12C
[15] = system: SF-268
[16] = system: MDA-N
[17] = system: PC-3
[18] = system: Malme-3M
[19] = system: OVCAR-8
[20] = system: UO-31

| Compound | GI50 [1] | GI50 [2] | GI50 [3] | GI50 [4] | GI50 [5] | GI50 [6] | GI50 [7] | GI50 [8] | GI50 [9] | GI50 [10] | GI50 [11] | GI50 [12] | GI50 [13] | GI50 [14] | GI50 [15] | GI50 [16] | GI50 [17] | GI50 [18] | GI50 [19] | GI50 [20] |
| --- | --- | --- | --- | --- | --- | --- | --- | --- | --- | --- | --- | --- | --- | --- | --- | --- | --- | --- | --- | --- |
| Oc1ccc(-c2c3ccccc3c(-c3ccc(OCCBr)cc3)c3ccccc23)cc1 | 20 µM (inactive) | 24 µM (inactive) | > 100 µM (inactive) | 30.1 µM (inactive) | 31.2 µM (inactive) | 21 µM (inactive) | 44.2 µM (inactive) | 14.4 µM (inactive) | 24.7 µM (inactive) | 21.7 µM (inactive) | 47.5 µM (inactive) | 23.6 µM (inactive) | 13.9 µM (inactive) | 22.1 µM (inactive) | 56.1 µM (inactive) | 26.4 µM (inactive) | 27.4 µM (inactive) | 14.7 µM (inactive) | 22 µM (inactive) | 67.6 µM (inactive) |
| COc1ccc(CNC(=O)[C@@H](C)N(C)C(=O)[C@@H]2CCCN2C(=O)[C@H](C(C)C)N(C)C(=O)[C@@H](NC(=O)[C@H](C(C)C)N(Cc2ccccc2)Cc2ccccc2)C(C)C)cc1OC (Bn2Val-V[NMeV]P[dNMeA]-{NH(3,4-diMeO-benzyl)}) | 6.58 µM (inactive) | 8 µM (inactive) | 14 µM (inactive) | 7.69 µM (inactive) | 6.55 µM (inactive) | 6.92 µM (inactive) | 7.1 µM (inactive) | 4.33 µM (inactive) | 5.61 µM (inactive) | 8.63 µM (inactive) | 1.8 µM (inactive) | 8.15 µM (inactive) | 7.89 µM (inactive) | 8.13 µM (inactive) | 6.41 µM (inactive) | 9.06 µM (inactive) | 3.61 µM (inactive) | 8.67 µM (inactive) | 14.1 µM (inactive) | > 100 µM (inactive) |
| CC1(C)COC2=C(C1)C(=O)c1ccccc1C2=O | 2.24 µM (inactive) | 1.99 µM (inactive) | 1.64 µM (inactive) | 1.85 µM (inactive) | 2.2 µM (inactive) | 1.61 µM (inactive) | 1.7 µM (inactive) | 1.21 µM (inactive) | 2.02 µM (inactive) | 0.195 µM (active) | 0.583 µM (active) | 2.04 µM (inactive) | 1.54 µM (inactive) | 1.36 µM (inactive) | 1.65 µM (inactive) | 0.182 µM (active) | 1.55 µM (inactive) | 1.88 µM (inactive) | 0.493 µM (active) | 1.04 µM (active) |
| C[n+]1c2ccccc2c2/c(=C\C#N)c3ccccc3n21 | 3.81 µM (inactive) | 2.84 µM (inactive) | 6.75 µM (inactive) | 3.42 µM (inactive) | 1.56 µM (inactive) | 4.15 µM (inactive) | 1.61 µM (inactive) | 2.16 µM (inactive) | 4.85 µM (inactive) | 5.43 µM (inactive) | 3.85 µM (inactive) | 4.43 µM (inactive) | 4.82 µM (inactive) | 3.42 µM (inactive) | 6.27 µM (inactive) | 3.7 µM (inactive) | 2.86 µM (inactive) | 2.53 µM (inactive) | 3.52 µM (inactive) | 12.6 µM (inactive) |
| CC(=O)O[C@H]1C(=O)[C@@]2(C)[C@H]([C@H](OC(=O)c3ccc(F)cc3)[C@]3(O)C[C@H](OC(=O)[C@H](O)[C@@H](NC(=O)c4ccccc4)c4ccccc4)C(C)=C1C3(C)C)[C@]1(OC(C)=O)CO[C@@H]1C[C@@H]2O | 0.108 µM (active) | 0.126 µM (active) | 0.0395 µM (active) | 0.64 µM (active) | 0.0108 µM (active) | 0.0559 µM (active) | 0.0107 µM (active) | 0.00334 µM (active) | 0.0813 µM (active) | 0.0025 µM (active) | 0.00469 µM (active) | 0.219 µM (active) | 0.0102 µM (active) | 0.528 µM (active) | 0.0929 µM (active) | 0.0025 µM (active) | 0.0112 µM (active) | 0.0127 µM (active) | 0.0181 µM (active) | 5.92 µM (inactive) |
| COc1cc(Nc2nc3ccccc3nc2C(C)C)cc(OC)c1OC | > 100 µM (inactive) | > 100 µM (inactive) | > 100 µM (inactive) | > 100 µM (inactive) | > 100 µM (inactive) | > 100 µM (inactive) | > 100 µM (inactive) | > 100 µM (inactive) | > 100 µM (inactive) | > 100 µM (inactive) | > 100 µM (inactive) | > 100 µM (inactive) | > 100 µM (inactive) | > 100 µM (inactive) | > 100 µM (inactive) | > 100 µM (inactive) | > 100 µM (inactive) | > 100 µM (inactive) | 73.3 µM (inactive) | > 100 µM (inactive) |
| c1ccc(C2=NN=C3C(c4ccccc4)=Nc4ccccc4N3C2)cc1 | 14.9 µM (inactive) | 27 µM (inactive) | 7.94 µM (inactive) | 32.4 µM (inactive) | 20.5 µM (inactive) | 13.7 µM (inactive) | 22.4 µM (inactive) | 20 µM (inactive) | 10.1 µM (inactive) | 17.7 µM (inactive) | 3.56 µM (inactive) | 38.9 µM (inactive) | 39.5 µM (inactive) | 29.9 µM (inactive) | 9.48 µM (inactive) | 31.3 µM (inactive) | 21.5 µM (inactive) | 26 µM (inactive) | 10 µM (inactive) | 7.43 µM (inactive) |
| Cc1ccc(-c2cn3c(nc4ccccc43)c(-c3ccccc3)n2)cc1 | 58.3 µM (inactive) | 15.6 µM (inactive) | > 100 µM (inactive) | 32.5 µM (inactive) | > 100 µM (inactive) | > 100 µM (inactive) | > 100 µM (inactive) | 27.7 µM (inactive) | 25.1 µM (inactive) | > 100 µM (inactive) | > 100 µM (inactive) | > 100 µM (inactive) | 58.2 µM (inactive) | > 100 µM (inactive) | > 45.3 µM (inactive) | > 100 µM (inactive) | > 100 µM (inactive) | > 83 µM (inactive) | 27.9 µM (inactive) | > 49.1 µM (inactive) |
| C[C@@H]1CC[C@@]2(C)[C@H](C)/C(=C\COC(=O)/C=C/c3ccc(O)c(O)c3)CC[C@@]12C [NAVICULYL CAFFEATE] | 6.05 µM (inactive) | 13.1 µM (inactive) | 8.02 µM (inactive) | 14.6 µM (inactive) | 3.61 µM (inactive) | 8.18 µM (inactive) | 7.67 µM (inactive) | 2.83 µM (inactive) | 15.7 µM (inactive) | 3.33 µM (inactive) | 5.26 µM (inactive) | 7.83 µM (inactive) | 4.83 µM (inactive) | 4.55 µM (inactive) | 9.84 µM (inactive) | 3.42 µM (inactive) | 4.71 µM (inactive) | 14 µM (inactive) | 9.42 µM (inactive) | 8.73 µM (inactive) |
| O=C(CN(c1ccc(S(=O)(=O)O)cc1)c1ccc(S(=O)(=O)O)cc1)Nn1cnc2ccc(S(=O)(=O)N(c3ccc(S(=O)(=O)O)cc3)c3ccc(S(=O)(=O)O)cc3)cc2c1=O | > 100 µM (inactive) | > 100 µM (inactive) | > 100 µM (inactive) | > 100 µM (inactive) | > 100 µM (inactive) | > 100 µM (inactive) | > 100 µM (inactive) | > 100 µM (inactive) | > 100 µM (inactive) | > 100 µM (inactive) | > 100 µM (inactive) | > 100 µM (inactive) | > 100 µM (inactive) | > 100 µM (inactive) | > 100 µM (inactive) | > 100 µM (inactive) | > 100 µM (inactive) | > 100 µM (inactive) | > 100 µM (inactive) | > 100 µM (inactive) |
